Laboratory results reported in US20250313530A1, “SMALL MOLECULE INHIBITORS OF INTERLEUKIN-4 AND USES THEREOF” (Trustees of Boston University, priority 2024, published 2025).
Read-outs that look alike come from different tables or passages of the source.

Tests used:
[1] = PAMPA membrane permeability; format: in vitro ADME; details: 18 hours incubation
Description: PVDF membranes purchased from Bioassay Systems PAMPA-096 were coated with 5 μL of 4% Phosphatidylcholine (Lecithin, MP Biomedicals 0210214780) in dodecane. […] Permeability was calculated by Pv=C×ln (1−ODA/ODE) cm/s, where ODA is the absorbance of acceptor solution minus blank, and ODE the absorbance of the equilibrium standard minus blank, and C=7.72×10^−6 using an 18-hour incubation time.

[2] = Mouse hepatic microsome stability; format: in vitro ADME; details: mouse hepatic microsomes
IL-4 = target: T1, IL-4 (Homo sapiens, UniProt P05112); assay: HEK-Blue IL-4/IL-13 reporter assay, IL-4 inhibition; format: cell-based; details: control: cells with 10 μM compound only, no IL-4
T1 construct: purchased Acros Biosystems IL4-H4218; host or cells: HEK-293
T1 sequence (P05112 25-153): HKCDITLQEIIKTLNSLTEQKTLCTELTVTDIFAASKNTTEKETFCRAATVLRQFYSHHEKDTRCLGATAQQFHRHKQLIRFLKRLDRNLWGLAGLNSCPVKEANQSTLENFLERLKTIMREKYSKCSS

[3] = test system: IL-4 induced pSTAT-6 in THP-1 cells; assay: THP-1 pSTAT-6 immunofluorescence
Description: IL-4 and analogs or vehicle (DMEM with 2% DMSO) were preincubated for 2 hours at 37° C. After the incubation, IL-4 or IL-4/analogs were incubated with THP-1 cells for 30 min at 37° C./5% CO2. Incubated cells were centrifuged for 5 min at 250×g. After aspirating the supernatant, cells were resuspended in 1×PBS and plated into a MatTek dish coated with Cell Tak adhesive for 30 minutes at room temperature. Cells were fixed with 4% Paraformaldehyde for 1 hour at room temperature. Cells were rinsed twice with 1×PBS and then permeabilized with 0.5% Triton-X for 1 hour at room temperature. Cells were rinsed again with 1×PBS, and blocked for an hour in superblock with 0.05% Tween-20, rinsed twice, and then incubated with anti-pSTAT-6 1:100 diluted in superblock 0.05% Tween-20 overnight at 4° C. (parafilmed to avoid evaporation). Cells were rinsed thrice with 1×PBS and then incubated with Mouse anti-rabbit IgG(H+L) Secondary Antibody-Alexa Fluor 647 for 1 hour at room temperature in the dark. […] Cells were rinsed twice with 1×PBS and left in 1 ml of 1×PBS. Confocal Imaging was done using an Olympus FV10i and images were processed using FIJI.

IL-13 = IL-13 (Homo sapiens, UniProt P35225); assay: HEK-Blue IL-4/IL-13 reporter assay, IL-13 inhibition; format: cell-based; details: soluble IL-13 mediated signaling, HEK Blue IL-4/IL-13 reporter assay
Description: Prior to screening. […] The solution was added to preincubated cells in a 96-well culture plate. The supernatant was then incubated with Quanti-Blue dye for 3 hours and absorbance was measured at 650 nm. Data was analyzed and plotted using GraphPad Prism 9.2.0.

soluble IL-4 = target: T2, soluble IL-4 (Homo sapiens, UniProt P05112); assay: Differential scanning fluorimetry (thermal shift), IL-4; format: binding
T2 sequence (P05112 25-153): T1 sequence (P05112 25-153)
Description: DSF was performed using BioRad CFX384.

Chain of IL-13 (P35225 25-146): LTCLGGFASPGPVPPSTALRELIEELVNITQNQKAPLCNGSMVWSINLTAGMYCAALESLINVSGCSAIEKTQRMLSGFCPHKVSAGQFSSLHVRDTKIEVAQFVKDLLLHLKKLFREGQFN

SMILES: N#Cc1c(-c2ccc(O)c(O)c2)cc(-c2ccccc2)[nH]c1=N [Compound 15, 4-(3,4-dihydroxyphenyl)-2-imino-6-phenyl-1,2-dihydropyridine-3-carbonitrile]
- Papp at 18 h, 100 μM [1]: 12.7 ×10⁻⁶ cm/s
- Mouse hepatic microsome stability (% remaining after 1 hour) [2]: 30.3%
- Abs650 (IL-4): 0.06345 ± 0.001036
- STAT-6 phosphorylation by immunofluorescence ([3]; 50 nM): reduced STAT-6 phosphorylation
- STAT-6 phosphorylation by immunofluorescence ([3]; 500 nM): complete inhibition of phosphorylation
- EC50 (IL-13): 4.49 µM
- ΔTm at 2 µM (soluble IL-4; IL-4 shift minus IL-2 shift, 2 μM, read-out: thermal shift for IL-4 stronger than for IL-2 by): > 1 °C
- ΔTm at 2 µM (soluble IL-4; soluble IL-4, 2 μM compound, 0.1% DMSO, read-out: Tm shift): 1.75 °C
